Measured values as given in patent US20220226341A1, “Pharmaceutical Composition for Alzheimer's Disease” (Kyoto University, priority 2019, published 2022).

Target: CDK9/CycT1 (Homo sapiens, UniProt P50750)
Experiment: CDK9 inhibitory activity, Off-chip Mobility Shift Assay (MSA)
Format: biochemical
Conditions: room temperature, one hour, read-out: IC50 value with respect to CDK9/CycT1
Description: [Assay of CDK9 Inhibitory Activity]
The tests for confirming CDK9 inhibitory activity were carried out by the following procedure according to Off-chip Mobility Shift Assay (MSA).
A substrate/ATP/metal solution (4×) was prepared with use of a kit buffer (20 mM HEPES, 0.01% Triton X-100, 5 mM DTT, pH7.5). A kinase solution (2×) was prepared with use of an assay buffer.
2) The test substance solutions, the substrate/ATP/metal solution, and the kinase solution were mixed in wells of a polypropylene plate, and were caused to react at room temperature for one hour.
3) A termination buffer (QuickScout Screening Assist MSA; Cama Biosciences Inc.)
was added thereto to stop the reaction.
4) Substrate peptides and phosphorylated peptides in the reaction solutions were separated and quantified in LabChip™ System (PerkinElmer Co., Ltd.).
5) Kinase reaction activities were evaluated based on a product ratio (P/(P+S)) calculated from a peak height of the substrate peptide (S) and a peak height of the phosphorylated peptide (P).

Sequence of CDK9/CycT1 (P50750 whole entry): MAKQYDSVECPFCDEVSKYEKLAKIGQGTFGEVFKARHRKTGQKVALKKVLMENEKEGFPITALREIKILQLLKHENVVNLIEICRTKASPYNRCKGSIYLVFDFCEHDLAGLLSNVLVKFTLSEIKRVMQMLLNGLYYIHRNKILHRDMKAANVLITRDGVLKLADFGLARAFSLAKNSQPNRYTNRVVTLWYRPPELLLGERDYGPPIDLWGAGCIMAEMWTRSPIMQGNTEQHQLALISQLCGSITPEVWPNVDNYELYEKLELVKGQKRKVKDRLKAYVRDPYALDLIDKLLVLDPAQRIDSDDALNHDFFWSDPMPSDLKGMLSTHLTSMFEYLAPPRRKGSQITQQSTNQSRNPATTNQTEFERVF
Sequence of CDK9/CycT1 (O60563 whole entry partner): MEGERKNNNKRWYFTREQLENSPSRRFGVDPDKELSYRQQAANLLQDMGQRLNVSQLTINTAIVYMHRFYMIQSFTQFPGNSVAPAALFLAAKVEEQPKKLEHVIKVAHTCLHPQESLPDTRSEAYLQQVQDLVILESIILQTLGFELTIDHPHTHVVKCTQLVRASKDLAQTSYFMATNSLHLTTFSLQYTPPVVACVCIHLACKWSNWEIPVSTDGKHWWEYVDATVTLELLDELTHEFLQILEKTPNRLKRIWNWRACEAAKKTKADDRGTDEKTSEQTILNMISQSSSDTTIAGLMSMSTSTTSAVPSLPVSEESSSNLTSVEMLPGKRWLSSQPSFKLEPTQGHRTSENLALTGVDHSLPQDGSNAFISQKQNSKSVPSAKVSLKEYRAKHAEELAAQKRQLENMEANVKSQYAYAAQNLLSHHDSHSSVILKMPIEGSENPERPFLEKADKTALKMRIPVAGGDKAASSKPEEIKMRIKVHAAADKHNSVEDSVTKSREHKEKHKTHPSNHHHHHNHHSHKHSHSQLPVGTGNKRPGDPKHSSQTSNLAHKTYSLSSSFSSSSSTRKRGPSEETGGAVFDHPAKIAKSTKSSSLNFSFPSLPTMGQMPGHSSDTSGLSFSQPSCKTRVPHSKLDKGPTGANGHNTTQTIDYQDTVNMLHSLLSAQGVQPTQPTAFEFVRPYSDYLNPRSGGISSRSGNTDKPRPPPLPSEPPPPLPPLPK

IC50 [µM]	Compound
13.1	O=C(Nc1cc(F)ccc1N1CCCCC1)c1ccncc1 [Compound 2]
13.3	Fc1ccc(N2CCCCCC2)c(NC(=S)c2ccncc2)c1 [Compound 3]
13.7	O=C(Nc1cc(F)ccc1N1CCCCCC1)c1ccncc1 [Compound 4]
